Experimental findings from PMC6680806, “Preparation of Retinoyl-Flavonolignan Hybrids and Their Antioxidant Properties” (Antioxidants, 2019) are described below.

Where “and” joins values, the source holds several entries; their conditions need not be identical. Equal values may be shown once.

The nature of data set [1]: Cupric reducing antioxidant capacity (CUPRAC). The data set is classed as biochemical. Conditions: mean ± standard error; values marked f: measurement disturbed by the formation of a precipitate. The method, then:
(§1) Ferric reducing antioxidant power (FRAP) and cupric reducing antioxidant capacity (CUPRAC) were measured using kits from Bioquochem (Llanera-Asturias, Spain) according to the manufacturer´s instructions and expressed as trolox equivalents (TE). To determine oxygen radical absorption capacity (ORAC), 73 µL of fluorescein (1.8 mg/L) solution in phosphate buffered saline (PBS, pH 7.4) was mixed with 2 µL of the samples (0–20 µM) in the wells of a 96-well plate. After 15 min incubation (37 °C), 25 µL of freshly prepared 2,2′-azo-bis(2-amidinopropane) dihydrochloride (AAPH, 60 mg/mL) was added to each well except for the negative control, where AAPH was replaced for PBS. The fluorescence (ex./em., 485/535 nm) was recorded immediately and for the next 2 h with the measurement step for 5 min using a microplate reader (SpectraMax i3 Multi-Mode Detection Platform, Molecular Devices, Wokingham, UK).
(§2) The oxidations in living organism caused by free radicals are usually undesirable processes damaging such important biomolecules as DNA, proteins and lipids. The application of antioxidants is one of the most straightforward means to protect these biomolecules from oxidative stress. Many assays are available for determination of antioxidant potential in vitro. These assays are based on the reduction of stable radicals (DPPH), on the competitive bleaching of a probe (ORAC) or on the reduction of iron ions (CUPRAC, FRAP). CUPRAC test is very similar to FRAP assay but is based on the reduction of Cu^2+ in a neutral pH, while FRAP test is based on Fe^3+ in acidic pH. As each assay suffers from some limitations, a set of antioxidant tests was used here to combine more parameters.

A further data set concerns HepG2 cell line. Briefly: Cellular antioxidant activity (CAA). Type of data set: cell-based. To be noted: Homo sapiens; HepG2 cells, DCFH-DA/AAPH; > = no activity noted at the highest concentration tested. The protocol:
For cellular antioxidant activity (CAA) assay, the HepG2 cell line (ATCC, CCL-23TM, USA) was cultivated in Eagle’s Minimum Essential Medium (Sigma-Aldrich, USA) supplemented with 10% of foetal bovine serum, 2 mM L-glutamine and 1× Antibiotic Antimycotic Solution (Sigma-Aldrich, St. Louis, MO, USA) in a CO2 incubator (5% CO2, 37 °C, Thermo Fisher Scientific, Waltham, MA, USA) and passaged 2×/week using trypsin-EDTA solution. For the experiments, 100 µL of the cells (1 × 10^6 cells/mL, Cellometer Auto T4 Bright Field Cell Counter, Nexcelom Bioscience, Lawrence, MA, USA) were split into 96-well plates. After 24 h, the cells were washed 3× with PBS (MultiFlo Multi-Mode Dispenser, BioTek, USA) and Dulbecco’s Modified Eagle’s Medium (Sigma-Aldrich, St. Louis, MO, USA) supplemented with the 2′,7′-dichlorodihydrofluorescein diacetate (DCFH-DA, 0.0125 mg/mL) was added to each well together with the tested samples in the concentration range 0–500 µM. After incubation (1 h, CO2 incubator, 37 °C), the medium was manually replaced for AAPH solution (0.16 mg/mL) and the fluorescence (ex./em. 485/540 nm) was recorded immediately for 2 h with 5 min steps.
(§3) The main disadvantage of DPPH scavenging assay is the use of an unnatural radical. Such methods based on competitive probe reactions or indirect methods based on persistent radicals should only be used for preliminary screening purposes. Thus, to better characterize the potential of the obtained conjugates in terms of their biological activity, a series of simple, rapid, sensitive and reproducible biochemical antioxidant assays including FRAP, CUPRAC and ORAC [38] and a more relevant cellular antioxidant activity (CAA [37]) was measured (Table 2). […] Therefore, in this study, we compared two methods with the same mechanism of action: ORAC assay was performed as a classical biochemical method presenting the ability of tested compounds to quench peroxyl radicals generated from AAPH to protect fluorescein from oxidation. This assay serves better as a physical description of the tested compounds [37]. To reflect biological aspect, CAA was measured using the liver carcinoma HepG2 cell line where the compound must enter the cell to fulfil its role as an antioxidant. The CAA assay partially includes the bioavailability, aspects of uptake and metabolism.

A short description of a further data set: DPPH radical scavenging. Type of data set: biochemical. To be noted: 20 µM DPPH in methanol, 30 min, 25 °C, mean ± standard error. The protocol: The radical scavenging activity of the prepared conjugates, their parent compounds, their equimolar mixtures and retinol was evaluated as their capacity to scavenge 1,1-diphenyl-2-picrylhydrazyl radicals (DPPH, Sigma-Aldrich, Prague, Czech Republic), as described previously with minor modifications. Briefly, 15 µL of the tested substance (final concentration 0–20 mM in DMSO) was mixed with 285 µL of a freshly prepared methanolic DPPH solution (final concentration 20 µM) in a microtiter plate well. After 30 min at 25 °C, the absorbance at 517 nm was measured. The activity was expressed as the concentration of the compound required for reducing the absorbance to 50% (IC50) of its initial value.

Data set [2] can be described thus: Ferric reducing antioxidant power (FRAP). Type of data set: biochemical. To be noted: mean ± standard error. The protocol: as §1, §2
The nature of data set [3]: Oxygen radical absorption capacity (ORAC). Type of data set: biochemical. To be noted: fluorescein/AAPH, PBS pH 7.4, 37 °C; mean ± standard error. The protocol: as §1, §3
The nature of data set [4]: Stability of sample during ORAC and CAA measurement. The data set is classed as physicochemical. The protocol: Dose-dependent curves were obtained in both ORAC and CAA assay for single compounds resulting in IC50 determination (Table 2). In contrast, no anti-oxidant activity of the conjugates was detected in liver cells in all the concentration range tested up to 50 or 500 µM. In fact, such a large concentration is not expectable in plasma.

The mark [5] stands for this setting: covalent retinoyl conjugate, read-out: DPPH radical scavenging activity (IC50), conjugate with retinoic acid.
The mark [6] stands for this setting: parent compound alone, read-out: DPPH radical scavenging activity (IC50), parent compound.

For `COc1cc([C@@H]2Oc3cc([C@H]4Oc5cc(OC(=O)/C=C(C)/C=C/C=C(C)/C=C/C6=C(C)CCCC6(C)C)cc(O)c5C(=O)[C@@H]4O)ccc3O[C@H]2CO)ccc1O` [6b, Silybin B-7-O-retinoate], the “CUPRAC (cupric reducing antioxidant capacity)” value in data set [1] was 0.04 ± 0.01^f TE. The IC50 with HepG2 cell line is > 500 µM; in “DPPH radical scavenging” (setting [5]) it was 540 µM; in data set [3], 230 ± 8 µM. Besides, in data set [2], the “FRAP (ferric-reducing antioxidant potential, trolox equivalents)” value is 0.010 ± 0.001 *^,# TE.

With `COc1cc(C2Oc3cc([C@H]4Oc5cc(OC(=O)/C=C(C)/C=C/C=C(C)/C=C/C6=C(C)CCCC6(C)C)cc(O)c5C(=O)[C@@H]4O)ccc3OC2CO)ccc1O` (stereo partly drawn) [6ab, Silybin-7-O-retinoate], the “CUPRAC (cupric reducing antioxidant capacity)” value in data set [1] was determined as 0.22 ± 0.01 TE. Besides, the IC50 in the data set on HepG2 cell line was > 500 µM; in the data set “DPPH radical scavenging” (setting [5]) it was 666 µM; in data set [3] it was 91 ± 4 µM. The “FRAP (ferric-reducing antioxidant potential, trolox equivalents)” value in data set [2] is given as 0.03 ± 0.02 *^,# TE.

With `COc1cc([C@@H]2Oc3cc([C@H]4Oc5cc(O)cc(O)c5C(=O)[C@@H]4O)ccc3O[C@H]2CO)ccc1O` [3b, silybin B], the “CUPRAC (cupric reducing antioxidant capacity)” value in data set [1] is 0.16 ± 0.02 TE. Besides, the IC50 in the data set with HepG2 cell line amounted to 6.8 ± 0.5 µM; in “DPPH radical scavenging” (setting [6]), 659 ± 29 µM; in data set [3] it was 8 ± 0.3 µM. The “FRAP (ferric-reducing antioxidant potential, trolox equivalents)” value in data set [2] is given as 0.268 ± 0.009 TE.

With `COc1cc([C@H]2Oc3ccc([C@H]4Oc5cc(O)cc(O)c5C(=O)[C@@H]4O)cc3O[C@@H]2CO)ccc1O` [5a, isosilybin A], the “CUPRAC (cupric reducing antioxidant capacity)” value in data set [1] came to 0.16 ± 0.02 TE. Moreover, the IC50 in the data set on HepG2 cell line was > 100 µM; in the data set “DPPH radical scavenging” (setting [6]), 783 ± 9 µM; in data set [3], 4.3 ± 1.1 µM. Besides, the “FRAP (ferric-reducing antioxidant potential, trolox equivalents)” value in data set [2] was 0.280 ± 0.006 TE.

Consider `CC1=C(/C=C/C(C)=C/C=C/C(C)=C/C(=O)O)C(C)(C)CCC1` [compound 2, Retinoic acid], for which, in data set [1], the “CUPRAC (cupric reducing antioxidant capacity)” value is reported as 0.10 ± 0.02^f TE. Also, the IC50 is 460 ± 211 µM in the data set with HepG2 cell line; 745 µM and 1480 µM in “DPPH radical scavenging” (setting [6]); 13 ± 2 µM in data set [3]. For the same molecule, the “FRAP (ferric-reducing antioxidant potential, trolox equivalents)” value in data set [2] came out at 0.62 ± 0.02 TE.

In the case of `COc1cc(C2Oc3cc([C@H]4Oc5cc(O)cc(O)c5C(=O)[C@@H]4O)ccc3OC2CO)ccc1O` (stereo partly drawn) [3ab, Silybin], in data set [1], the “CUPRAC (cupric reducing antioxidant capacity)” value was determined as 0.17 ± 0.00 TE. The half-inhibitory concentration (IC50) was 11.8 ± 0.3 µM with HepG2 cell line, 472 ± 16 µM in the data set “DPPH radical scavenging” (setting [6]) and 7.8 ± 0.7 µM in data set [3]. The “FRAP (ferric-reducing antioxidant potential, trolox equivalents)” value in data set [2] is 0.335 ± 0.006 TE.

Regarding `COc1cc([C@H]2Oc3cc([C@H]4Oc5cc(O)cc(O)c5C(=O)[C@@H]4O)ccc3O[C@@H]2CO)ccc1O` [3a, silybin A], in data set [1], the “CUPRAC (cupric reducing antioxidant capacity)” value came to 0.20 ± 0.00 TE. The IC50 in the data set with HepG2 cell line turned out to be 10 ± 0.7 µM; in “DPPH radical scavenging” (setting [6]), 818 ± 22 µM; in data set [3], 8.5 ± 0.4 µM. In addition, the “FRAP (ferric-reducing antioxidant potential, trolox equivalents)” value in data set [2] is recorded as 0.278 ± 0.005 TE.

Consider `COc1cc([C@H]2Oc3ccc([C@H]4Oc5cc(OC(=O)/C=C(C)/C=C/C=C(C)/C=C/C6=C(C)CCCC6(C)C)cc(O)c5C(=O)[C@@H]4O)cc3O[C@@H]2CO)ccc1O` [8a, Isosilybin A-7-O-retinoate], for which, in data set [1], the “CUPRAC (cupric reducing antioxidant capacity)” value is listed as 0.11 ± 0.01^f TE. Moreover, the IC50 in the data set with HepG2 cell line was > 500 µM; in the data set “DPPH radical scavenging” (setting [5]), 2360 µM; in data set [3], 174 ± 7 µM. The “FRAP (ferric-reducing antioxidant potential, trolox equivalents)” value in data set [2] is on record as 0.022 ± 0.003 *^,# TE.

Consider `COc1cc([C@H]2Oc3cc([C@H]4Oc5cc(OC(=O)/C=C(C)/C=C/C=C(C)/C=C/C6=C(C)CCCC6(C)C)cc(O)c5C(=O)[C@@H]4O)ccc3O[C@@H]2CO)ccc1O` [6a, Silybin A-7-O-retinoate], for which the “CUPRAC (cupric reducing antioxidant capacity)” value in data set [1] is 0.21 ± 0.02 TE. Besides, the “Stability during ORAC and CAA measurement” value in data set [4] was “unstable and decomposed”. For the same molecule, the figures for the IC50 in the data set with HepG2 cell line and in the data set “DPPH radical scavenging” (setting [5]) were > 50 µM and 379 µM, respectively. Also, in data set [2], the “FRAP (ferric-reducing antioxidant potential, trolox equivalents)” value is listed as 0.038 ± 0.002 *^,# TE.

As for `CC1=C(/C=C/C(C)=C/C=C/C(C)=C/CO)C(C)(C)CCC1` [compound 1, Retinol], the “CUPRAC (cupric reducing antioxidant capacity)” value in data set [1] is listed as 0.09 ± 0.01^f TE. The IC50 was 1270 ± 147 µM with HepG2 cell line; 1480 µM and 745 µM in the data set “DPPH radical scavenging” (setting [6]); 169 ± 12 µM in data set [3]. Further, the “FRAP (ferric-reducing antioxidant potential, trolox equivalents)” value in data set [2] was found to be 1.76 ± 0.04 TE.

For `COc1cc(C2Oc3cc(-c4oc5cc(O)cc(O)c5c(=O)c4O)ccc3OC2CO)ccc1O` (stereo not drawn) [compound 4, 2,3-dehydrosilybin], the “CUPRAC (cupric reducing antioxidant capacity)” value in data set [1] turned out to be 0.25 ± 0.00 TE. Besides, the IC50 in the data set on HepG2 cell line was 10.9 ± 0.5 µM; in the data set “DPPH radical scavenging” (setting [6]), 19.2 ± 0.3 µM; in data set [3], 9.6 ± 0.4 µM. In data set [2], the “FRAP (ferric-reducing antioxidant potential, trolox equivalents)” value is 4.06 ± 0.05 TE.

`COc1cc(C2Oc3cc(-c4oc5cc(O)cc(O)c5c(=O)c4OC(=O)/C=C(C)/C=C/C=C(C)/C=C/C4=C(C)CCCC4(C)C)ccc3OC2CO)ccc1O` (stereo not drawn) [compound 7, 2,3-Dehydrosilybin AB-3-O-retinoate]: the “CUPRAC (cupric reducing antioxidant capacity)” value in data set [1] is reported as 0.07 ± 0.02^f TE. Moreover, the values for the IC50 (with HepG2 cell line; in “DPPH radical scavenging” (setting [5]); in data set [3]) were > 500 µM, 734 µM and 130 ± 7 µM, respectively. The “FRAP (ferric-reducing antioxidant potential, trolox equivalents)” value in data set [2] is on record as 0.034 ± 0.005 *^,# TE.
